For experiment [1], the target named is T1, EndoG (Homo sapiens, UniProt Q14249).
T1 sequence (Q14249 49-297): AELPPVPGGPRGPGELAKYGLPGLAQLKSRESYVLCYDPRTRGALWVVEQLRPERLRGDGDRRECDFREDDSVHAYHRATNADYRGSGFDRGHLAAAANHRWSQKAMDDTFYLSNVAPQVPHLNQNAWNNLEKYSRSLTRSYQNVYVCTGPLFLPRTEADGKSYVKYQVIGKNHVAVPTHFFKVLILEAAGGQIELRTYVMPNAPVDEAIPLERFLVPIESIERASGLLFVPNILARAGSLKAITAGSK
The experiment can be described thus: High-throughput EndoG screening assay. The class given is biochemical. The method, then:
(§1) A reaction mixture was prepared in each well of a white 96-well plate (Costar, Corning, N.Y.) as follows: 0.25 μM Cy5.5-labeled oligonucleotide (described in US provisional patent filed Oct. 19, 2012, Ser. No. 61/716,097) 0.3 mM MgCl2, 10 mM Tris-HCl, pH 7.4, 1 μl DMSO containing 5 or 50 ng of test compound, and nuclease-free water for a total reaction volume of 100 μl. The background (negative control) and uninhibited EndoG samples were measured using DMSO only, or DMSO containing recombinant EndoG (4 μg/ml), respectively. After addition of EndoG, fluorescence intensity was kinetically measured on a Bio-Tek Synergy 4.0 plate reader at 37° C. and mean velocity (mRFU/min) within 20 min was automatically calculated by the plate reader. The background was subtracted prior to the calculation of EndoG activity (%). The percent of EndoG activity was calculated from the mean velocity of a compound divided by the mean velocity of DMSO with recombinant EndoG, and the obtained value multiplied by 100.

The target of experiment [2] is T1, EndoG. The experiment can be described thus: Plasmid incision assay. Particulars: agarose gel, FIG. 9. The class given is biochemical. Here is the method: A reaction mixture was prepared containing 0.5 μg pECFP plasmid DNA, 2 mM CaCl2, 5 mM MgCl2, 10 mM Tris-HCl, pH 7.4, 0.5 mM dithiothreitol. The test compound [50 ng in DMSO (1 μl)] was added. Recombinant EndoG was then added to the final concentration of 200 ng/ml and the reaction was incubated for 1 h at 37° C. The reaction was terminated by adding 2 μl of 10 mM Tris-HCl, pH 7.4, 1% SDS, 25 mM EDTA, 7.2 mM bromophenol blue. The samples were run in 1% agarose gel in Tris-acetate-EDTA buffer (40 mM Tris, 20 mM acetic acid, 1 mM EDTA, pH 8), at 7 V/cm for 35 min, and DNA was stained with ethidium bromide. An EagleEye scanning densitometer (Stratagene, La Jolla, Calif.) was utilized to quantify the relative amount of endonuclease-treated plasmid DNA present in a covalently-closed circular (supercoiled) DNA, open circular DNA, or linear DNA, or in a digested form.

The next experiment has as its target T2, DNase I (Homo sapiens, UniProt P24855).
T2 sequence (P24855 23-282): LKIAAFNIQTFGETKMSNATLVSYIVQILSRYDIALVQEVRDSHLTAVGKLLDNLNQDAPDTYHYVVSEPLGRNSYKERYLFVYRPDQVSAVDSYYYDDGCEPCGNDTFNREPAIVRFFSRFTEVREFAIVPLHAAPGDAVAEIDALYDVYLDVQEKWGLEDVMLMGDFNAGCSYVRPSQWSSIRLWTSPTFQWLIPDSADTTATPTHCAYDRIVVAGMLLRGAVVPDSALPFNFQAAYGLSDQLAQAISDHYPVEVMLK
The experiment can be described thus: Endonuclease screening assay, specificity. In kind it is biochemical.
Text: (§2) Specificity of a potential inhibitor is important for any in vitro or in vivo application, and generally defines the usefulness of an inhibitor. To determine specificity of the inhibitors for the two EndoG inhibitors, PNR-3-80 and PNR-3-82, their IC50 values for EndoG were compared using the screening assay with the IC50 values for two other endonucleases, DNase I and DNAse II (FIG. 11). These endonucleases were chosen because they represent the majority of endonuclease activity in most mammalian cells and because of their availability as pure enzymes.
as §1

Another experiment deals with T3, DNase II (Homo sapiens, UniProt O00115).
T3 sequence (O00115 19-360): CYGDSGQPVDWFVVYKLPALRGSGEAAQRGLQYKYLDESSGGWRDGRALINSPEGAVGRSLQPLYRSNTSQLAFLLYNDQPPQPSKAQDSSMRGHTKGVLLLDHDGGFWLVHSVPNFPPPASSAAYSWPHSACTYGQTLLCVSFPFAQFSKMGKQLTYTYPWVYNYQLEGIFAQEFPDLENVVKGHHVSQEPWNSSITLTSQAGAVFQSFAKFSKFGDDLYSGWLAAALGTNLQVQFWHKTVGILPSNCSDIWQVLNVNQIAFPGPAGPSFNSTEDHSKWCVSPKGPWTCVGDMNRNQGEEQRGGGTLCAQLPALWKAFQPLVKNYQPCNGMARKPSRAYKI
The experiment can be described thus: Endonuclease screening assay, specificity. The class given is biochemical.
Text: as §2, §1

A further experiment deals with RNase A. The experiment can be described thus: Ribonuclease A activity in NRK-52E cell extract. The class given is biochemical. Particulars: 0.1 μM and 10 μM. The method, then:
(§3) As a follow up to Example 8, the effects of the EndoG inhibitors PNR-3-80 and PNR-3-82, at 0.1 μM and 10 μM each, on the activities of four other enzymes including RNase A, protease, LDH, and SOD in NRK-52E cell extract were examined. NRK-52E cells were grown to ˜80% confluence in […]. The medium was aspirated and the cells were rinsed with ice cold 1×PBS, pH 7.4. The cells were lysed in 50 mM Tris-HCl, pH 7.4, 150 mM NaCl, 1% Triton X-100 for 10 min on ice and then briefly sonicated. Cell debris was removed by centrifugation at 13,000×g for 10 min at 4° C. The supernatant was collected and stored at −80° C. until use. LDH, Protease, Superoxide dismutase (SOD), and Ribonuclease A (RNase A) activities were measured by using CytoTox 96® Non-Radioactive Cytotoxicity Assay kit (Promega, Madison, Wis.), Protease Fluorescent Detection kit (Sigma-Aldrich, Saint Louis, Mo.), SOD determination kit (Sigma-Aldrich, Saint Louis, Mo.), and Ribonuclease A Detection kit (Sigma-Aldrich, Saint Louis, Mo.), respectively, according to the manufacturer's instructions.

For the next experiment, the system named is protease. The experiment can be described thus: Protease activity in NRK-52E cell extract. The class given is biochemical. To be noted: 0.1 μM and 10 μM. The method, then: as §3
The next experiment relates to LDH. The experiment can be described thus: LDH activity in NRK-52E cell extract. In kind it is biochemical. Particulars: 0.1 μM and 10 μM. The method, then: as §3
The next experiment relates to SOD. The experiment can be described thus: SOD activity in NRK-52E cell extract. Particulars: 0.1 μM and 10 μM. The class given is biochemical. The method, then:
as §3

In a further experiment the test system is 22Rv1 cells. The experiment can be described thus: Cytoprotection against Cisplatin-induced cell death, LDH release assay. In kind it is cell-based, human. To be noted: Cisplatin 60 μM, inhibitor 50 μM. Here is the method: To test cytotoxic activities of the inhibitors, human prostrate carcinoma epithelial 22Rv1 cells, which naturally express EndoG, were exposed to Cisplatin (60 μM) in the presence or absence of PNR-3-80 (50 μM) and cell death was measured by the LDH release assay.
On the technique in general: LDH in the medium is a marker of cell lysis.

The subject of experiment [3] is EndoG-expressing PC3 cells. The experiment can be described thus: Cytoprotection against Docetaxel-induced cell death, LDH release and TUNEL assays. To be noted: Docetaxel 80 μM, inhibitor 50 μM. The class given is cell-based, human. Here is the method:
Docetaxel is an anti-cancer drug used to treat prostate cancer. Human invasive prostate cancer PC3 cells are known to be resistant to anticancer drugs. […] The resulting EndoG-expressing PC3 cells were exposed with Docetaxel (80 μM) in the absence or presence of the inhibitors, PNR-3-80 or PNR-3-82 (50 μM each). The cell death was measured by using two methods, LDH release assay and TUNEL assay. […]

Molecules are shown by their SMILES. Values joined by “and” are separate entries in the source; they are usually repeats but may differ in a detail not shown here. Equal values may be shown once.

The term IC50 denotes the midpoint of a concentration-inhibition curve. In the case of `O=C1NC(=S)NC(=O)C1=Cc1cn(C(=O)c2ccc3ccccc3c2)c2ccc(Cl)cc12` [PNR-3-80], at EndoG [1] (20 min, compound 1 μM, read-out: % EndoG activity in the presence of the compound), the remaining activity at 1 µM stood at 36%. The half-inhibitory concentration (IC50) on EndoG [1] (IC50 against EndoG, EndoG screening assay) is 0.671 µM and 0.67 µM; on DNase I it was 11.2 µM. In addition, at EndoG [2], the “protection of supercoiled plasmid DNA from degradation by EndoG” value was “significantly protected the plasmid DNA from degradation”. Besides, on DNase II, the “effect on DNase II activity” value is listed as “did not have any effect”. In addition, in the experiment with RNase A, the “RNase A activity” value is given as “none of the two tested compounds had any inhibiting activity”. In addition, the protease activity entry in the experiment with protease is on record as “none of the two tested compounds had any inhibiting activity”. For the same compound, in the experiment on LDH, the LDH activity entry is reported as “none of the two tested compounds had any inhibiting activity”. For the same compound, in the experiment on SOD, the SOD activity entry was “none of the two tested compounds had any inhibiting activity”. Further, the “inhibition of Cisplatin-induced cell death” value in the experiment with 22Rv1 cells is “significant and complete inhibition”; in the experiment with 22Rv1 cells (listed as P-NR-30) it was “complete inhibition”. Also, the “cytoprotection against Docetaxel-induced cell death” value in experiment [3] is “cytoprotective”.

Source of the values: patent US20160075689A1, “POLYMERASE, ENDONUCLEASE, AND HELICASE INHIBITORS AND METHODS OF USING THEREOF” (THE BOARD OF TRUSTEES OF THE UNIVERSITY OF ARKANSAS, priority 2013, published 2016).
